According to patent US20070161665A1, “Cancer treatment method” (priority 2003, published 2007):
pIC50: −log10 of the molar value.

Legend:
AKT1 = AKT1 (Homo sapiens, UniProt P31749); test: Inhibition of AKT isoforms, enzyme IC50; type: biochemical
HN5 cells = test: Roche Cell Death ELISAPlus apoptosis assay in HN5 cells (median effect and sensitization ratio analysis); type: cell-based; conditions: HN5; for Sensitization Ratio in HN5 with 5 μM GW589522A: 5 μM GW589522A 24 h
Protocol: HN5 cells are LICR-LON-HN5 head and neck carcinoma cells, which were a gift from the Institute of Cancer Research, Surrey, U.K.
(§1) Cell lines were grown in RPMI-1640 supplemented with 25 mM HEPES, 10 mM glutamine and 10% fetal bovine serum and maintained at 37° C. and 5% CO2 in a humid incubator. Assays were performed in 96 well microtiter plates with optimum seeding densities for each cell line.
(§2) Apoptosis was measured using the Roche Cell Death ELISA^Plus kit (catalog 1 774 425) which detects fragmented nucleosomal DNA that is generated during apoptosis.
Synergistic interaction between compounds was analyzed by the median effect method described by Chou and Talalay (Adv. Enzyme Regul. 22: 27-55, 1984). Briefly, if the two compounds fit the mutually exclusive model of Chou, one calculates the combination index (CI) using the formula CI=((D)1/(Dx)1)+((D)2/(Dx)2) (1) where (D)1 is the concentration of drug 1 in the combination that gives “x” percent apoptosis, (D)2 is the same for drug 2, and (Dx)1 and (Dx)2 are the concentrations of drug 1 or 2 that give “x” percent apoptosis when used alone. (D)1 and (D)2 are known from the composition of the combination and (Dx)1 and (Dx)2 can be calculated from the equation Dx=Dm*[fa/(1−fa)]^1/m (2) where Dm is the concentration of drug giving 50% effect, fa is the fraction affected, and m is the slope from the median effect plot of log (fa/fu) where fu is the fraction unaffected versus log (D). A CI less than 1 indicates synergy, equal to 1 indicates additivity and greater than 1 antagonism.
Sensitization is measured as the ratio between observed and expected apoptosis or caspase activation from a combination of AKT kinase inhibitor and EGFR/erb inhibitor. The expected level of activity (Ae) is calculated by Ae=1−((1−A1)*(1−A2)) (3) where A1 and A2 are the activities of drugs 1 and 2 alone at the concentration used in the combination (Harvey, R. J., J. Theor. Biol. 74: 411-437, 1978).

AKT2 = AKT2 (Homo sapiens, UniProt P31751); test: Inhibition of AKT isoforms, enzyme IC50; type: biochemical
Chain of AKT2 (P31751 whole entry, species assumed, canonical isoform): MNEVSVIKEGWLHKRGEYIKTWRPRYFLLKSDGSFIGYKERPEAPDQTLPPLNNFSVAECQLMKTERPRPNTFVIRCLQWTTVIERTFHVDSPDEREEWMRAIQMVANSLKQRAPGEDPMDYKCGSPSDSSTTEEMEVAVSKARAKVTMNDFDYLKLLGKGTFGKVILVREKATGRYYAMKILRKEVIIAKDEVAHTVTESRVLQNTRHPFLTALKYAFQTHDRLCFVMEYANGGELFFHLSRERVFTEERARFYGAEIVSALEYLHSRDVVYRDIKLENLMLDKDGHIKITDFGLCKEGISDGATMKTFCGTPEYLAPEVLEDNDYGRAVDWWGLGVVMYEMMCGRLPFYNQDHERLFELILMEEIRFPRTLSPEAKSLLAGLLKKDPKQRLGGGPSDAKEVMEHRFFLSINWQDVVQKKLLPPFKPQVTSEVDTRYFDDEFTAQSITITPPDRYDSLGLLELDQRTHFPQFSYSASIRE

AKT3 = AKT3 (Homo sapiens, UniProt Q9Y243); test: Inhibition of AKT isoforms, enzyme IC50; type: biochemical
Chain of AKT3 (Q9Y243 whole entry, species assumed, canonical isoform): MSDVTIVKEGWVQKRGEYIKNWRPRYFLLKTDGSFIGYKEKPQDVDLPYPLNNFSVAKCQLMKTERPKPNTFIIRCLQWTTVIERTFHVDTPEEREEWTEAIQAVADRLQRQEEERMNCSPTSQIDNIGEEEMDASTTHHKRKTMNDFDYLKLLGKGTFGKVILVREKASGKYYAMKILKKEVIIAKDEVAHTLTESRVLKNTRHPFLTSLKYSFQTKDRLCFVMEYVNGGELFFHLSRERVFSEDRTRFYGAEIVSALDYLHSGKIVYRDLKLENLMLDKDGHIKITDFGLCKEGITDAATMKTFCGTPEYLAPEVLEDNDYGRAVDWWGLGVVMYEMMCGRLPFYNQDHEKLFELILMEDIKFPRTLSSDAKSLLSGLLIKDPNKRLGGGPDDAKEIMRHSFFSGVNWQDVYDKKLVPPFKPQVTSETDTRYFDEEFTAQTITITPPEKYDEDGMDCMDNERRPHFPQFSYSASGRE

T47D cells = test: Roche Cell Death ELISAPlus apoptosis assay in T47D cells (sensitization ratio); type: cell-based, human; conditions: compound at 25 μM, combined with GW589522
Protocol: T47D cells are human breast ductal carcinoma cells originally obtained from the American Type Culture Collection.
as §1, §2
The expected level of activity (Ae) is calculated by Ae=1−((1−A1)*(1−A2)) (3) where A1 and A2 are the activities of drugs 1 and 2 alone at the concentration used in the combination (Harvey, R. J., J. Theor. Biol. 74: 411-437, 1978).
Apoptosis was measured using the Roche Cell Death ELISA^Plus kit, and the relative percentage of apoptosis was determined for each combination.

Chain of AKT1 (P31749 whole entry, species assumed, canonical isoform): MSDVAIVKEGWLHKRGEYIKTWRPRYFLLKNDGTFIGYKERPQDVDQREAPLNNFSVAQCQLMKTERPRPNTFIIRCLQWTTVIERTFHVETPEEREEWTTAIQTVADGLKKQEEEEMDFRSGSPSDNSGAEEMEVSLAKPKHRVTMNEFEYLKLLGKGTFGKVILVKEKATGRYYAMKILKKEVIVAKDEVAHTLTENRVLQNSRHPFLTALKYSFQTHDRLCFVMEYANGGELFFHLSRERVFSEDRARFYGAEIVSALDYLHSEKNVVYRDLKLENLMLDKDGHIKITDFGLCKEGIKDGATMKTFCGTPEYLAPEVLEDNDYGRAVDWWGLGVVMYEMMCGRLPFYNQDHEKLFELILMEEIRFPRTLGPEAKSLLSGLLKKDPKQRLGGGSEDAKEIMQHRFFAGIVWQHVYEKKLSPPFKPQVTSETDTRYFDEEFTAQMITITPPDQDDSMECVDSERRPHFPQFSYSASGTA

Question: With `Nc1nonc1-c1nc2c(-c3cccc(Cl)c3)ncc(C(=O)NCCNCc3ccccc3)c2n1CC1CC1.O=C(O)C(F)(F)F` [Ex 8, 2-(4-amino-1,2,5-oxadiazol-3-yl)-4-(3-chlorophenyl)-1-(cyclopropylmethyl)-N-{2-[(phenylmethyl)amino]ethyl}-1H-imidazo[4,5-c]pyridine-7-carboxamide, trifluoroacetate salt] as the compound, how does the pIC50 (AKT1) read?
Answer: Its pIC50 is 5.08.

Question: And the “Sensitization Ratio in HN5 with 5 μM GW589522A” value (“Sensitization Ratio in HN5” for short) (HN5 cells; then compound 25 μM 4 h)?
Answer: The value was 27 @ 25.

Question: And the pIC50 (AKT2)?
Answer: The pIC50 was 5.10.

Question: What about the pIC50 (AKT3) of the same compound?
Answer: The pIC50 was 6.35.

Question: What about the “SR (sensitization ratio)” value (T47D cells) of the same compound?
Answer: The value was 7.1.

Question: Which results are given for `CCn1c(-c2nonc2N)nc2cncc(OC3CCNCC3)c21` [Ex 9, 4-[1-Ethyl-7-(piperidin-4-yloxy)-1H-imidazo[4,5-c]pyridin-2-yl]-furazan-3-ylamine]?
Answer: pIC50 (AKT1): 6.89; Sensitization Ratio in HN5 with 5 μM GW589522A (HN5 cells; then compound 4 μM 4 h): 2.6 @ 4; Net Apoptosis (HN5 cells; GW572016 0 μM 24 h, then Ex 9 2 μM 4 h): 2.7%; Net Apoptosis (HN5 cells; GW572016 0 μM 24 h, then Ex 9 4 μM 4 h): 1.8%; Net Apoptosis (HN5 cells; GW572016 0 μM 24 h, then Ex 9 8 μM 4 h): 3.9%; Net Apoptosis (HN5 cells; GW572016 0 μM 24 h, then Ex 9 16 μM 4 h): 3.7%; Net Apoptosis (HN5 cells; GW572016 0 μM 24 h, then Ex 9 20 μM 4 h): 4.7%; Net Apoptosis (HN5 cells; GW589522 0 μM 24 h, then Ex 9 0.5 μM 4 h): 6.3%; Net Apoptosis (HN5 cells; GW589522 0 μM 24 h, then Ex 9 2 μM 4 h): 8.7%; Net Apoptosis (HN5 cells; GW589522 0 μM 24 h, then Ex 9 8 μM 4 h): 17.9%; pIC50 (AKT2): 6.41; pIC50 (AKT3): 6.39

Question: With `CCn1c(-c2nonc2N)nc2c(-c3ccccc3)ncc(OCC3CCCNC3)c21.O=C(O)C(F)(F)F` (centres unmarked) [Ex 10, 4-{1-ethyl-4-phenyl-7-[(3-piperidinylmethyl)oxy]-1H-imidazo[4,5-c]pyridin-2-yl}-1,2,5-oxadiazol-3-amine trifluoroacetate] as the compound, how does the pIC50 (AKT1) read?
Answer: The pIC50 was 8.00.

Question: What about the “Sensitization Ratio in HN5” value (HN5 cells; then compound 10 μM 4 h) of the same compound?
Answer: Its value is 3.7 @ 10.

Question: And the pIC50 (AKT2)?
Answer: The pIC50 was 7.52.

Question: And the pIC50 (AKT3)?
Answer: The pIC50 was 8.00.

Question: What does the source list for `CCn1c(-c2nonc2N)nc2c(-c3cccc(Cl)c3)ncc(OCC3CCNCC3)c21.O=C(O)C(F)(F)F` [Ex 11, 4-{4-(3-chlorophenyl)-1-ethyl-7-[(4-piperidinylmethyl)oxy]-1H-imidazo-[4,5-c]pyridin-2-yl}-1,2,5-oxadiazol-3-amine trifluoroacetate]?
Answer: pIC50 (AKT1): 7.52; Sensitization Ratio in HN5 with 5 μM GW589522A (HN5 cells; then compound 2.5 μM 4 h): 20 @ 2.5; Sensitization Ratio in HN5 with 5 μM GW589522A (HN5 cells; then compound 5 μM 4 h): 25 @ 5; pIC50 (AKT2): 7.70; pIC50 (AKT3): 8.00

Question: How did the pIC50 (AKT1) turn out when `CCn1c(-c2nonc2N)nc2c(-c3cccc(Cl)c3)ncc(OCCCCN)c21.O=C(O)C(F)(F)F` [Ex 12, 4-[7-[(4-aminobutyl)oxy]-4-(3-chlorophenyl)-1-ethyl-1H-imidazo-[4,5-c]pyridin-2-yl]-1,2,5-oxadiazol-3-amine trifluoroacetate] was run?
Answer: The pIC50 was 7.40.

Question: And the “Sensitization Ratio in HN5” value (HN5 cells; then compound 25 μM 4 h)?
Answer: The value was 3.6 @ 25.

Question: And the pIC50 (AKT2)?
Answer: The pIC50 was 7.40.

Question: And the pIC50 (AKT3)?
Answer: Its pIC50 is 8.00.

Question: How did the pIC50 (AKT1) turn out when `CCn1c(-c2nonc2N)nc2c(-c3ccccc3)ncc(OCCCN)c21.O=C(O)C(F)(F)F` [Ex 13, 4-{7-[(3-aminopropyl)oxy]-1-ethyl-4-phenyl-1H-imidazo[4,5-c]pyridin-2-yl}-1,2,5-oxadiazol-3-amine trifluoroacetate] was run?
Answer: Its pIC50 is 7.40.

Question: And the “Sensitization Ratio in HN5” value (HN5 cells; then compound 5 μM 4 h)?
Answer: The value was 12 @ 5.

Question: And the pIC50 (AKT2)?
Answer: Its pIC50 is 7.70.

Question: What about the pIC50 (AKT3) of the same compound?
Answer: Its pIC50 is 8.00.

Question: `CCn1c(-c2nonc2N)nc2cncc(OCC3CCNCC3)c21` [Ex 14, 4-[1-Ethyl-7-(piperidin-4-ylmethoxy)-1H-imidazo[4,5-c]pyridin-2-yl]-furazan-3-ylamine] was tested. Which pIC50 (AKT1) did it give?
Answer: The pIC50 was 7.15.

Question: And the “Sensitization Ratio in HN5” value (HN5 cells; then compound 4 h, concentration not given)?
Answer: The value was 4.5 @.

Question: What about the pIC50 (AKT2) of the same compound?
Answer: The pIC50 was 6.57.

Question: And the pIC50 (AKT3)?
Answer: Its pIC50 is 6.29.
